Patent US8709976B2, “Anthranilic diamide compositions for propagle coating” (E I du Pont de Nemours and Company, priority 2010, dated 2014)

Test: Corn greenhouse trial: uptake of Compound 2 into leaves from coated seeds
Conditions: corn (maize), in vivo
Experimental: Plant leaves were macerated using a Geno/Grinder 2000 bead beater homogenizer (SPEX CertiPrep, Metuchen, N.J., USA), and then acetonitrile (˜5 mL/g of leaf tissue) was added. The mixture was further shaken for 1 minute using the Geno/Grinder homogenizer, and then centrifuged. The acetonitrile extract supernatant was analyzed by high performance liquid chromatography with tandem mass spectrometry detection (HPLC/MS/MS) using a Waters (Milford, Mass. USA) Alliance HT2795 chromatograph and Zorbax SB C18 (2.1×50 mm, 5 microns) column eluted with mixtures of water and acetonitrile containing 0.1% (volume/volume) of formic acid, with detection by a Waters Quattro Micro API Mass Spectrometer using electrospray ionization (ESI+). Standard solutions of Compound 1 and Compound 2 were prepared by adding measured amounts of stock solutions of Compound 1 or Compound 2 in acetonitrile or tetrahydrofuran to acetonitrile extracts of leaves from plants grown from untreated seeds.
For corn and Compound 2, a 1:1 weight ratio of nonionic fatty alcohol ethoxylate with Compound 2 was prepared with each additive by mixing the appropriate amount of either 16.7 wt % or 20.0 wt % solution in water of the nonionic fatty alcohol ethoxylate with 1.0 g of Compound 2.
Into a FlackTek™ Max 100 disposable plastic cup were placed 35.0 grams (100 seeds) of corn seeds. […]

For CNC(=O)c1cc(Cl)cc(C)c1NC(=O)c1cc(Br)nn1-c1ncccc1Cl [Compound 2, 3-bromo-N-[4-chloro-2-methyl-6-[(methylamino)carbonyl]phenyl]-1-(3-chloro-2-pyridinyl)-1H-pyrazole-5-carboxamide], the “Uptake microgram/g of leaf” value was 0.42 microgram/g of leaf.
